The record followed here is patent EP0415731B1, “Novel entities for cancer therapy” (THE WELLCOME FOUNDATION LIMITED, priority 1989, dated 1991).

Assay [1] concerns Hep G2 cells. In words: Growth inhibition of Hep G2 cells (cell number and DNA content, 5 days). The assay is classed as cell-based. To be noted: Homo sapiens, read-out: IC50 (50% growth inhibition). Here is the method:
(§1) The replication-defective, full length, artificial retroviruses containing the AFP/VZV TK chimaera were used to infect a human hepatoma cell line called Hep G2 (ATCC KS 8065). Following infection and selection on 1mg geneticin/ml (Trade mark), the cells were assayed for VZV TK activity. In addition, the cells were incubated in the presence of (^3H) labeled 9-(B-D-arabinofuranosyl)-6-methoxy-9H purine (designated as ara-M in the following tables and figures) with subsequent measurement of ara ATP. Finally, cells were cultured in the presence of the above mentioned compound and the IC50 - (growth inhibition) was determined. Cells infected with no virus or N2 virus act as control samples for these experiments. N2 virus contain no VZV TK genetic material.
Hep G2 cells infected with the replication-defective, full length, artificial retroviruses containing the AFP/VZV TK (pCR78) chimaera were incubated in the presence of varying amounts of 9-(B-D-arabinofuranosyl)-6-methoxy-9H purine for 5 days and growth inhibition determined as measured by cell number and DNA content.

In assay [2] the test system is Hep G2 cells. Put plainly: ara ATP formation from (3H) labelled ara-M in infected Hep G2 cells. The assay is classed as cell-based, human. Conditions: Hep G2 cells infected with pCR78 containing viruses, incubated with (3H) labelled compound; Figure 6. The protocol:
as §1
9-(B-D-arabinofuranosyl)-6-methoxy-9H purine (designated as ara-m) can be selectively monophosphorylated by VZV TK with subsequent anabolism to cytotoxic ara ATP.

Read-outs that look alike come from different tables or passages of the source. Bounds are passed on as bounds.

With `COc1ncnc2c1ncn2[C@@H]1O[C@H](CO)[C@@H](O)[C@@H]1O` [9-(β-D-arabinofuranosyl)-6-methoxy-9H-purine], the IC50 (as a rule, the concentration that gives 50% inhibition) with Hep G2 cells [1] (HepG2, 120 h, Hep G2 cells infected with AFP/VZV TK (pCR78) retrovirus, 5 days) was 175 µM; in the assay with Hep G2 cells [1] (HepG2, 120 h, Hep G2 cells infected with N2 virus (no VZV TK), 5 days), greater than 2000 µM; in the assay with Hep G2 cells [1] (HepG2, 120 h, control Hep G2 cells, no virus, 5 days), greater than 2000 µM; in the assay with Hep G2 cells [1] (HepG2, single cell clones of Hep G2 cells containing the AFP/VZV TK (pCR78) chimaera), roughly 40 µM. In addition, the “(3H) araATP formation” value in the assay on Hep G2 cells [2] is listed as “significant amounts”.
